Like-named read-outs stand apart in the source and are kept apart here.
How the values were obtained:
[1] = tested on: PARP; test: Immunoblot analysis of PARP cleavage in SK-Br3 cells; format: cell-based, human; settings: for 89 KDa product of PARP cleavage: SK-Br3 cells, 30 μM, 12, 24 and 48 h
Procedure: (§1) Following the treatment of SK-Br3 cells with the studied compound at the desired concentrations and time intervals, cells were harvested by treatment with trypsin-EDTA solution, washed twice with PBS and stored at −80° C. The cells were lysed in lysis buffer (1 mM EDTA, 150 mM NaCl, 100 μg/mL PMSF and 50 mM Tris-HCl, pH 7.5) and kept at 4° C. while they were routinely mixed every 2 min on the vortex during 30 min. A sample was taken for measurement of protein content by a BioRad assay (Bio-Rad Laboratories). Equal amounts of protein were heated in sodium dodecyl sulphate (SDS) sample buffer (Laemmli) for 5 min at 95° C., separated on a 3-8% SDS-polyacrylamide gel (FASN, p185^HER2/neu, phospho-p185^HER2/neu) or 4-12% SDS-polyacrylamide gel (AKT, phospho-AKT, ERK1/2, phospho-ERK1/2 and PARP) and transferred onto nitrocellulose membranes. The membranes were incubated for 1 h at room temperature in blocking buffer (2.5% powdered-skim milk in TBS-T [10 mM Tris-HCl pH 8.0, 150 mM NaCl and 0.05% Tween-20]) to prevent non-specific antibody binding. The primary antibody used was a monoclonal antibody. Antibody dilution was prepared in blocking solution and blots were incubated with monoclonal antibody overnight at 4° C. […] Blots were re-probed with an antibody for β-actin to control for protein loading and transfer.
Western blot analysis for poly-ADP-ribose polymerase (PARP) was performed on SK-Br3 cells exposed for 12, 24 and 48 h to compound f (30 μM) and compound i (30 μM). Apoptosis and induction of caspase activity was confirmed by Western blotting analysis showing cleavage of PARP.

[2] = tested on: Non-malignant fibroblasts N-1; test: MTT cytotoxicity assay, non-malignant fibroblasts N-1; format: cell-based; settings: for IC50: Fibroblast, non-malignant fibroblasts, MTT, 48 h, read-out: IC50, growth inhibition, Fibroblasts; for effect on non-malignant cells / normal fibroblasts: at concentrations similar to IC50; for effects in cell death / morphology changes in non-malignant cells: up to doses three-fold their cytotoxic IC50 value in tumoral cells
Procedure: (§2) MCF-7 and MDA-MB-231 breast cancer cells were obtained from the American Type Culture Collection (ATCC) and were routinely grown in Dulbecco's modified Eagle's medium (DMEM, Gibco) containing 10% fetal bovine serum (FBS, Bio-Whittaker), 1% L-glutamine, 1% sodium pyruvate, 50 U/mL penicillin and 50 μg/mL streptomycin. SK-Br3 breast cancer cells were obtained from Eucellbank (Universidad de Barcelona, Spain) and were passaged in McCoy's 5 A medium containing 10% FBS, 1% L-glutamine, 1% sodium pyruvate, 50 U/mL penicillin and 50 μg/mL streptomycin. Non-malignant fibroblasts N-1 were obtained from Eucellbank (Universidad de Barcelona, Spain) and were passaged in DMEM medium containing 10% FBS, 1% L-glutamine, 1% sodium pyruvate, 50 U/mL penicillin and 50 μg/mL streptomycin. The cells remained free of Mycoplasma and were propagated in adherent culture according to established protocols. Cells were maintained at 37° C. in a humidified atmosphere of 95% air and 5% CO2.
(§3) Drug sensitivity was determined using a standard colorimetric MTT (3-4,5-dimethylthiazol-2-yl-2,5-diphenyltetrazolium bromide) assay. Briefly, cells were plated out at a density of 7×10^3 cells/100 μL/well in 96-well microtitre plates and allowed an overnight period for attachment. Then the medium was removed and fresh medium along with various concentrations of the tested compound were added to the cultures for a period of 48 h. Following the treatment, the cells were fed with drug-free medium (100 μL/well) and 10 μL of MTT solution (5 mg/mL; Sigma, St. Louis, Mo.), and the incubation was prolonged for 3 h at 37° C. After carefully removing the supernatants, the MTT-formazan crystals formed by metabolically viable cells were dissolved in dimethyl sulphoxide (100 μL/well) and the absorbance was measured at 570 nm in a multi-well plate reader (Model Anthos Labtec 2010 1.7 reader).

[3] = Weight loss in vivo (data not shown)
[4] = tested on: MDA-MB-231 breast cancer cells; test: MTT cytotoxicity assay, MDA-MB-231 breast cancer cells; format: cell-based, human; settings: Homo sapiens, MDA-MB-231 cells, 48 h, read-out: IC50, growth inhibition, MDA-MB-231
Procedure: as §2, §3

[5] = tested on: MCF-7 breast cancer cells; test: MTT cytotoxicity assay, MCF-7 breast cancer cells; format: cell-based, human; settings: Homo sapiens, MCF7, MCF-7 cells, 48 h, read-out: IC50, growth inhibition, MCF-7
Procedure: as §2, §3

[6] = tested on: SK-Br3 breast cancer cells; test: MTT cytotoxicity assay, SK-Br3 breast cancer cells; format: cell-based, human; settings: for IC50: MTT, 48 h, read-out: IC50, growth inhibition, SK-Br3
Procedure: as §2, §3

[7] = tested on: AKT; test: Immunoblot analysis of AKT and phospho-AKT in SK-Br3 cells; format: cell-based, human; settings: for time after treatment at which a marked decrease of p-AKT was observed / expression levels of p-AKT proteins: SK-Br3, 30 μM; for expression levels of p-AKT proteins: 6 hours after treatment; for active form of Akt: within 2 h after treatment
Procedure: as §1

[8] = tested on: HER2; test: Immunoblot analysis of p185HER2/neu and phospho-p185HER2/neu in SK-Br3 cells; format: cell-based, human; settings: for level of total HER2 / expression levels of p-HER2 proteins / levels of p-HER2 proteins: SK-Br3, 30 μM; for level of total HER2: Western blotting or HER2-specific ELISA; for expression levels of p-HER2 proteins: within 2 h after exposure; for levels of p-HER2 proteins: within 6 h after treatment; for active form of oncoprotein HER2: within 2 h after treatment
Procedure: as §1
We have examined the time-dependent effects of compound f (30 μM) and compound i (30 μM) on HER2, AKT and ERK1/2 activation.

SMILES | induction of apoptosis (cleavage of PARP) [1] | 89 KDa product of PARP cleavage [1] | IC50 [2] [µM] | effect on non-malignant cells / normal fibroblasts [2] | effects in cell death / morphology changes in non-malignant cells [2] | weight loss in vivo [3] | IC50 [4] [µM] | IC50 [5] [µM] | relative IC50 ratio of EGCG to compound [6] | IC50 ([6]; Homo sapiens, SK-BR-3, 48 h) [µM] | IC50 [6] [µM] | time after treatment at which a marked decrease of p-AKT was observed [7] [h] | expression levels of p-AKT proteins [7] | active form of Akt [7] | level of total HER2 [8] | expression levels of p-HER2 proteins [8] | levels of p-HER2 proteins [8] | active form of oncoprotein HER2 [8]
O=C(Oc1cc(OC(=O)c2cc(O)c(O)c(O)c2)c2ccccc2c1)c1cc(O)c(O)c(O)c1 [f, 1,3-bis[(3,4,5-trihydroxybenzoyl)oxy]naphthalene] | induced apoptosis | marked increase | > 150 | not affected | No significant effects | without inducing weight loss in vivo | 78.7 ± 4 | 46.3 ± 18 | 7.5 | 21.3 ± 6.7 | 20 | 24 | low decrease | marked decrease | no significant change | markedly decreased | total decrease | marked decrease
O=C(Oc1ccc(OC(=O)c2cc(O)c(O)c(O)c2)c2ccccc12)c1cc(O)c(O)c(O)c1 [i, 1,4-bis[(3,4,5-trihydroxybenzoyl)oxy]naphthalene] | induced apoptosis | marked increase | > 150 | not affected | No significant effects | without inducing weight loss in vivo | 62.5 ± 10.6 | 44.4 ± 16.3 | 5.4 | 28.7 ± 0.3 | 28 | 12 | low decrease | marked decrease | no significant change | markedly decreased | total decrease | marked decrease

— patent US20100190856A1, “Novel Polyhydroxylated Compounds as Fatty Acid Synthase (FASN) Inhibitors” (UNIVERSIDAD COMPLUTENSE DE MADRID, priority 2007, published 2010)
